Measurements reported in patent publication US11712434B2, “Compound having anti-cancer effect, and preparation method therefor and use thereof” (3D MEDICINES (BEIJING) CO., LTD., priority 2016, dated 2023).

Legend:
Test in all cases: Cell proliferation assay (Alamar Blue)
Format in all cases: cell-based
[1] = system: CCRF-CEM; settings: Homo sapiens, 144 h; CCRF-CEM tumor cell line; 6 days culture
Method: (§1) 1. Instruments and Materials • Thermo 311 CO2 incubator; Haier biosafety cabinet; Molecular Devices microplate reader; Xiangyi brand L530 desktop low speed centrifuge; Olympus IX51 inverted fluorescence microscope, DMEM, RPMI 1640, MEM, DMEM/F12 1:1 medium, Fetal bovine serum, 0.25% trypsin solution, phosphate buffer (Thermo Fisher Shanghai Co., Ltd.); sigma dimethyl sulfoxide (DMSO), resazurin; 54 commercial tumor cell lines (including 26 liver cancer cell lines). Experimental drugs: compounds 1-12 and active drug Linifanib; chemotherapeutic drug Doxorubicin (HY-15142; Shanghai Qianyuan Biomedical Technology Co., Ltd.).
(§2) 2. Experimental Methods • 2.1 Cultivation of Different Cell Lines • 54 cell lines were cultured in a culture medium containing fetal bovine serum and placed in a 5% CO2 incubator at 37° C. for incubation. The cells were all grown in an adherent state, and the growth was observed under an inverted microscope, and subculture was performed when the cell confluence rate reached 80%-90%. The proportion and quantity of passage were determined by experimental needs. The ratio of subculture of this cell line was generally 1:2^˜1:3. • 2.2 Inhibition Effect on the Proliferation of Different Tumor Cell Lines • Cell test: 54 cell lines in logarithmic growth phase were inoculated in 96-well culture plates at 500^˜1×10^4/well (the optimal seeding density of each cell line was determined in pre-experiment), After incubating at 37° C. for 4 h in a 5% CO2 humidification incubator, added 10 μL of compounds 1-12 or Linifanib to each well, and tested 9 drug concentration gradients for each compound (diluted from the highest concentration of the test by 3.16 times). The solubility of each compound was different at a starting concentration of 100 or 30 μM, respectively. The QC reference compound Doxorubicin was added simultaneously to each cell line test, and the final drug concentrations were 10, 3.16, 1, 0.31, 0.1, 0.03, 0.01, 0.003, and 0.001 μM, respectively. In addition, a positive control group (100% inhibition) and a negative control group (0% inhibition) were set at the same time. The drug group was repeated for 2 wells per concentration, and the positive control group and the negative control group were repeated for 6 wells. After the culture was continued for 6 days in the incubator, AlamarBlue test operation was followed; • AlamarBlue test procedure: Incubated with 10 μL of AlamarBlue reagent per well for 1-4 h, shook for 1-2 min, MD microplate reader EX: 560 nm, EM: 590 nm wavelength to measure fluorescence, recorded the results, calculated the cell inhibition rate of the compound of the invention. Cell inhibition rate (%)=(A0% inhibition−A administration)/(A0% inhibition−A100% inhibition)×100%, and then using the method of nonlinear regression using GraphPad Prism 5.0 or MATILAB software (usually using four parameters) to graph and obtain a drug dose response curve to obtain an IC50 value of the compound of the present invention acting on a cancer cell line.

[2] = system: DLD1; settings: Homo sapiens, DLD-1, 144 h; DLD1 tumor cell line; 6 days culture
Method: as §1, §2

[3] = system: DU145; settings: Homo sapiens, DU-145, 144 h; DU145 tumor cell line; 6 days culture
Method: as §1, §2

[4] = system: HCCLM3; settings: Homo sapiens, 144 h; HCCLM3 tumor cell line; 6 days culture
Method: as §1, §2

[5] = system: HEPG2; settings: Homo sapiens, 144 h; HEPG2 liver cancer cell line; 6 days culture
Method: as §1, §2

[6] = system: HUH6; settings: Homo sapiens, HuH-6, 144 h; HUH6 liver cancer cell line; 6 days culture
Method: as §1, §2

[7] = system: HuTu80; settings: Homo sapiens, 144 h; HuTu80 tumor cell line; 6 days culture
Method: as §1, §2

[8] = system: JHH1; settings: 144 h; JHH1 liver cancer cell line; 6 days culture
Method: as §1, §2

[9] = system: JHH2; settings: JHH-2, 144 h; JHH2 liver cancer cell line; 6 days culture
Method: as §1, §2

[10] = system: JHH4; settings: JHH-4, 144 h; JHH4 liver cancer cell line; 6 days culture
Method: as §1, §2

[11] = system: JHH5; settings: 144 h; JHH5 liver cancer cell line; 6 days culture
Method: as §1, §2

[12] = system: JHH7; settings: 144 h; JHH7 liver cancer cell line; 6 days culture
Method: as §1, §2

[13] = system: KASUMI-1; settings: Homo sapiens, 144 h; KASUMI-1 (leukemia cells); 6 days culture
Method: as §1, §2

[14] = system: KM12; settings: Homo sapiens, 144 h; KM12 tumor cell line; 6 days culture
Method: as §1, §2

[15] = system: LNCAP-clone-FGC; settings: Homo sapiens, 144 h; LNCAP-clone-FGC tumor cell line; 6 days culture
Method: as §1, §2

[16] = system: Li-7; settings: 144 h; Li-7 liver cancer cell line; 6 days culture
Method: as §1, §2

[17] = system: MFM-223; settings: Homo sapiens, 144 h; MFM-223 tumor cell line; 6 days culture
Method: as §1, §2

[18] = system: NCI-H1648; settings: Homo sapiens, 144 h; NCI-H1648 tumor cell line; 6 days culture
Method: as §1, §2

[19] = system: NCI-H1703; settings: Homo sapiens, 144 h; NCI-H1703 (lung cancer cells); 6 days culture
Method: as §1, §2

[20] = system: NCI-H2170; settings: Homo sapiens, 144 h; NCI-H2170 tumor cell line; 6 days culture
Method: as §1, §2

[21] = system: NCI-H661; settings: Homo sapiens, 144 h; NCI-H661 tumor cell line; 6 days culture
Method: as §1, §2

[22] = system: SNU182; settings: Homo sapiens, SNU-182, 144 h; SNU182 liver cancer cell line; 6 days culture
Method: as §1, §2

[23] = system: SNU387; settings: Homo sapiens, SNU-387, 144 h; SNU387 liver cancer cell line; 6 days culture
Method: as §1, §2

[24] = system: SNU423; settings: Homo sapiens, SNU-423, 144 h; SNU423 liver cancer cell line; 6 days culture
Method: as §1, §2

[25] = system: SNU475; settings: Homo sapiens, SNU-475, 144 h; SNU475 liver cancer cell line; 6 days culture
Method: as §1, §2

[26] = system: SNU761; settings: 144 h; SNU761 liver cancer cell line; 6 days culture
Method: as §1, §2

[27] = system: SW620; settings: Homo sapiens, SW-620, 144 h; SW620 tumor cell line; 6 days culture
Method: as §1, §2

IC50 [1] | IC50 [2] | IC50 [3] | IC50 [4] | IC50 [5] | IC50 [6] | IC50 [15] | IC50 [18] | IC50 [19] | IC50 [20] | SMILES | IC50 [7] | IC50 [8] | IC50 [9] | IC50 [10] | IC50 [11] | IC50 [12] | IC50 [13] | IC50 [14] | IC50 [16] | IC50 [17] | other results
6.14 µM | 18.5 µM | 4.25 µM | 8.24 µM | 1.35 µM | 52.9 µM | 15.6 µM | 10.1 µM | 0.03 µM | 5.32 µM | Cc1ccc(F)c(NC(=O)Nc2ccc(-c3cccc4[nH]nc(NC(=O)C[C@H](N)C(=O)N[C@@H](CCC(=O)O)C(=O)O)c34)cc2)c1 [Compound 1] | 1.98 µM | 21.4 µM | 43.6 µM | 25 µM | 16.6 µM | 1.54 µM | 0.02 µM | 3.71 µM | 7.29 µM | 3.59 µM | IC50 [21]: 20.2 µM; IC50 [22]: 30.9 µM; IC50 [23]: 22.3 µM; IC50 [24]: 25.4 µM; IC50 [25]: 4.81 µM; IC50 [26]: 12.6 µM; IC50 [27]: 3.96 µM
10.4 µM | 29.2 µM | 9.34 µM | 12 µM | 3.86 µM | 79 µM | 26.5 µM | 21.5 µM | 0.07 µM | 7.69 µM | Cc1ccc(F)c(NC(=O)Nc2ccc(-c3cccc4[nH]nc(NC(=O)C[C@H](N)C(=O)N[C@@H](CCC(=O)N[C@@H](CCC(=O)N[C@@H](CCC(=O)N[C@@H](CCC(=O)O)C(=O)O)C(=O)O)C(=O)O)C(=O)O)c34)cc2)c1 [Compound 2] | 4.26 µM | 33.9 µM | 88.2 µM | 36.8 µM | 24.7 µM | 4.26 µM | 0.05 µM | 5.48 µM | 19.5 µM | 6.93 µM | IC50 [21]: 36.8 µM; IC50 [22]: 46.2 µM; IC50 [23]: 47.9 µM; IC50 [24]: 33.2 µM; IC50 [25]: 11.2 µM; IC50 [26]: 19.5 µM; IC50 [27]: 6.81 µM
